Measurements published in the supplement of paper PMC10307832.

Legend:
Assay in all cases: relative viability (nuclei count vs DMSO), 5 days (fraction); higher = more cells survive
H3255 = tested on: H3255
How it was run: (§1)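 Five library-drug doses in √10 steps were combined with a fixed anchor-drug dose, or a single drug was given alone, by pin tool to lung cancer cell lines in 1536-well plates the day after seeding. Nuclei were stained and counted after 5 days. Relative viability is the nuclei count in treated wells over that in vehicle wells, taken as the median of duplicate plates.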

PC-14 = tested on: PC-14
How it was run: as §1

NCI-H2023 = tested on: NCI-H2023
How it was run: as §1

NCI-H2085 = tested on: NCI-H2085
How it was run: as §1

HOP-62 = tested on: HOP-62
How it was run: as §1

NCI-H2009 = tested on: NCI-H2009
How it was run: as §1

NCI-H1915 = tested on: NCI-H1915
How it was run: as §1

NCI-H661 = tested on: NCI-H661
How it was run: as §1

SK-LU-1 = tested on: SK-LU-1
How it was run: as §1

EPLC-272H = tested on: EPLC-272H
How it was run: as §1

LCLC-97TM1 = tested on: LCLC-97TM1
How it was run: as §1

NCI-H1993 = tested on: NCI-H1993
How it was run: as §1

NCI-H2126 = tested on: NCI-H2126
How it was run: as §1

NCI-H727 = tested on: NCI-H727
How it was run: as §1

NCI-H322M = tested on: NCI-H322M
How it was run: as §1

SW 1573 = tested on: SW 1573
How it was run: as §1

EMC-BAC-2 = tested on: EMC-BAC-2
How it was run: as §1

NCI-H1563 = tested on: NCI-H1563
How it was run: as §1

LXF-289 = tested on: LXF-289
How it was run: as §1

NCI-H2347 = tested on: NCI-H2347
How it was run: as §1

NCI-H647 = tested on: NCI-H647
How it was run: as §1

Work on `NC(=O)Nc1cc(-c2cccc(F)c2)sc1C(=O)N[C@H]1CCCNC1` [AZD7762] + C[C@]1(O)C[C@@H](c2nc(-c3ccc4ccc(-c5ccccc5)nc4c3)c3c(N)nccn32)C1 [Linsitinib] (partner 1 µM) yielded a relative viability (H3255; first compound 0.01 µM) of 0.931, a relative viability (H3255; first compound 0.03162 µM) of 1.04 and a relative viability (H3255; first compound 0.1 µM) of 0.969. For the same compound, the relative viability (H3255; first compound 0.3162 µM) was 0.947, the relative viability (H3255; first compound 1 µM) was 0.817 and the relative viability (PC-14; first compound 0.01 µM) was 0.975. It also gave a relative viability (PC-14; first compound 0.03162 µM) of 0.994, a relative viability (PC-14; first compound 0.1 µM) of 0.995 and a relative viability (PC-14; first compound 0.3162 µM) of 0.891. For the same compound, the relative viability (PC-14; first compound 1 µM) was 0.425, the relative viability (NCI-H2023; first compound 0.01 µM) was 0.619 and the relative viability (NCI-H2023; first compound 0.03162 µM) was 0.485. For the same compound, the relative viability (NCI-H2023; first compound 0.1 µM) was 0.387, the relative viability (NCI-H2023; first compound 0.3162 µM) was 0.21 and the relative viability (NCI-H2023; first compound 1 µM) was 0.0864. It also gave a relative viability (NCI-H2085; first compound 0.01 µM) of 1.03, a relative viability (NCI-H2085; first compound 0.03162 µM) of 0.885 and a relative viability (NCI-H2085; first compound 0.1 µM) of 0.874. For the same compound, the relative viability (NCI-H2085; first compound 0.3162 µM) was 0.948, the relative viability (NCI-H2085; first compound 1 µM) was 0.693 and the relative viability (HOP-62; first compound 0.01 µM) was 1.04. It also gave a relative viability (HOP-62; first compound 0.03162 µM) of 1.09, a relative viability (HOP-62; first compound 0.1 µM) of 1.32 and a relative viability (HOP-62; first compound 0.3162 µM) of 0.891. For the same compound, the relative viability (HOP-62; first compound 1 µM) was 0.987, the relative viability (NCI-H2009; first compound 0.01 µM) was 1.32 and the relative viability (NCI-H2009; first compound 0.03162 µM) was 1.18. The relative viability (NCI-H2009; first compound 0.1 µM) was 1.27, the relative viability (NCI-H2009; first compound 0.3162 µM) was 1.22 and the relative viability (NCI-H2009; first compound 1 µM) was 0.752. For the same compound, the relative viability (NCI-H1915; first compound 0.01 µM) was 1.09, the relative viability (NCI-H1915; first compound 0.03162 µM) was 1.1 and the relative viability (NCI-H1915; first compound 0.1 µM) was 1.19. It also gave a relative viability (NCI-H1915; first compound 0.3162 µM) of 1.2, a relative viability (NCI-H1915; first compound 1 µM) of 1.06 and a relative viability (NCI-H661; first compound 0.01 µM) of 0.681. The relative viability (NCI-H661; first compound 0.03162 µM) was 0.546, the relative viability (NCI-H661; first compound 0.1 µM) was 0.444 and the relative viability (NCI-H661; first compound 0.3162 µM) was 0.501. For the same compound, the relative viability (NCI-H661; first compound 1 µM) was 0.293, the relative viability (SK-LU-1; first compound 0.01 µM) was 1.1 and the relative viability (SK-LU-1; first compound 0.03162 µM) was 0.804. It also gave a relative viability (SK-LU-1; first compound 0.1 µM) of 0.358, a relative viability (SK-LU-1; first compound 0.3162 µM) of 0.218 and a relative viability (SK-LU-1; first compound 1 µM) of 0.251. The relative viability (EPLC-272H; first compound 0.01 µM) was 1.15, the relative viability (EPLC-272H; first compound 0.03162 µM) was 1.28 and the relative viability (EPLC-272H; first compound 0.1 µM) was 1.23. For the same compound, the relative viability (EPLC-272H; first compound 0.3162 µM) was 1.19, the relative viability (EPLC-272H; first compound 1 µM) was 0.871 and the relative viability (LCLC-97TM1; first compound 0.01 µM) was 0.179. It also gave a relative viability (LCLC-97TM1; first compound 0.03162 µM) of 0.209, a relative viability (LCLC-97TM1; first compound 0.1 µM) of 0.214 and a relative viability (LCLC-97TM1; first compound 0.3162 µM) of 0.26. For the same compound, the relative viability (LCLC-97TM1; first compound 1 µM) was 0.189, the relative viability (NCI-H1993; first compound 0.01 µM) was 0.743 and the relative viability (NCI-H1993; first compound 0.03162 µM) was 0.678. The relative viability (NCI-H1993; first compound 0.1 µM) was 0.666, the relative viability (NCI-H1993; first compound 0.3162 µM) was 0.73 and the relative viability (NCI-H1993; first compound 1 µM) was 0.717. It also gave a relative viability (NCI-H2126; first compound 0.01 µM) of 0.711, a relative viability (NCI-H2126; first compound 0.03162 µM) of 0.758 and a relative viability (NCI-H2126; first compound 0.1 µM) of 0.763. For the same compound, the relative viability (NCI-H2126; first compound 0.3162 µM) was 0.706, the relative viability (NCI-H2126; first compound 1 µM) was 0.805 and the relative viability (NCI-H727; first compound 0.01 µM) was 0.282. The relative viability (NCI-H727; first compound 0.03162 µM) was 0.333, the relative viability (NCI-H727; first compound 0.1 µM) was 0.311 and the relative viability (NCI-H727; first compound 0.3162 µM) was 0.219. The relative viability (NCI-H727; first compound 1 µM) was 0.118, the relative viability (NCI-H322M; first compound 0.01 µM) was 1.02 and the relative viability (NCI-H322M; first compound 0.03162 µM) was 1.03. For the same compound, the relative viability (NCI-H322M; first compound 0.1 µM) was 0.92, the relative viability (NCI-H322M; first compound 0.3162 µM) was 0.987 and the relative viability (NCI-H322M; first compound 1 µM) was 0.84. For the same compound, the relative viability (SW 1573; first compound 0.01 µM) was 0.843, the relative viability (SW 1573; first compound 0.03162 µM) was 0.989 and the relative viability (SW 1573; first compound 0.1 µM) was 0.99. The relative viability (SW 1573; first compound 0.3162 µM) was 0.891, the relative viability (SW 1573; first compound 1 µM) was 0.752 and the relative viability (EMC-BAC-2; first compound 0.01 µM) was 0.795. The relative viability (EMC-BAC-2; first compound 0.03162 µM) was 0.806, the relative viability (EMC-BAC-2; first compound 0.1 µM) was 0.799 and the relative viability (EMC-BAC-2; first compound 0.3162 µM) was 0.799. The relative viability (EMC-BAC-2; first compound 1 µM) was 0.809, the relative viability (NCI-H1563; first compound 0.01 µM) was 1.25 and the relative viability (NCI-H1563; first compound 0.03162 µM) was 1.25. It also gave a relative viability (NCI-H1563; first compound 0.1 µM) of 1.46, a relative viability (NCI-H1563; first compound 0.3162 µM) of 1.12 and a relative viability (NCI-H1563; first compound 1 µM) of 0.953. The relative viability (LXF-289; first compound 0.01 µM) was 0.957, the relative viability (LXF-289; first compound 0.03162 µM) was 0.938 and the relative viability (LXF-289; first compound 0.1 µM) was 1.01. It also gave a relative viability (LXF-289; first compound 0.3162 µM) of 1.03, a relative viability (LXF-289; first compound 1 µM) of 1.06 and a relative viability (NCI-H2347; first compound 0.01 µM) of 1.09. The relative viability (NCI-H2347; first compound 0.03162 µM) was 1.01, the relative viability (NCI-H2347; first compound 0.1 µM) was 1.15 and the relative viability (NCI-H2347; first compound 0.3162 µM) was 1.1. The relative viability (NCI-H2347; first compound 1 µM) was 1.04, the relative viability (NCI-H647; first compound 0.01 µM) was 1.37 and the relative viability (NCI-H647; first compound 0.03162 µM) was 1.3. It also gave a relative viability (NCI-H647; first compound 0.1 µM) of 1.05, a relative viability (NCI-H647; first compound 0.3162 µM) of 0.462 and a relative viability (NCI-H647; first compound 1 µM) of 0.153.
